pIC50: −log10 of the molar value.
Target: MAP4K1 (HPK1) (Homo sapiens (Human), UniProt Q92918)
Assay: MAP4K1 (HPK1) biochemical enzymatic activity, electrophoretic mobility shift (EZReader 2), ATP at APPKM (26 μM)
Excerpt: MAP4K1 (HPK1) and relevant off-target enzymatic activity was monitored using the Perkin Elmer electrophoretic mobility shift technology platform—the EZReader 2. […] Within the linear, steady-state phase of the kinase enzymatic reaction, the mixed pool of phosphorylated (product) and non-phosphorylated (substrate) peptides was passed through the microfluidic system of the PerkinElmer EZ Reader 2, under an applied electric potential difference. The presence of the phosphate group on the product peptide provided a difference in mass and charge between that of the substrate peptide, resulting in a separation of the substrate and product pools in the sample (Perrin et al. 2010). As the product and substrate peptide mixture passes the lasers within the instrument, these pools are detected (λex=488 nm, λent=568 nm) and resolved as separate peaks. The ratio between these peaks reflects the activity of the compound at that concentration, in that well, under those conditions.
Inhibitors were dissolved in 100% DMSO at a stock concentration of 10 mM. A 100×, 10-point, 4-fold serial dilution of each inhibitor was created in 100% DMSO either manually or on a Hamilton STAR liquid handler, starting at a relevant concentration, usually 1 mM. A volume of 0.130 μL of each concentration was transferred to the relevant wells of a 384-well plate (Greiner 781 201) in duplicate using a TTPLabtech Mosquito nano-litre dispenser. Using a Multidrop Combi, the remaining constituents of the kinase reaction were added to the 130 nL of dosed compound as follows (see table below for final reaction details):
Enzyme activity assays at the ^APPKM for ATP or 1 mM ATP: In each well of a 384-well plate, 0.1-15 nM of untreated enzyme was incubated in a total of 13 μL of buffer (100 mM HEPES pH 7.5, 0.015% Brij 35, 10 mM MgCl2, 1 mM DTT) with 1.5 μM fluorescent peptid and 20-1000 μM ATP, at 25° C., for 60-180 minutes in the presence or absence of a dosed concentration series of compound (1% DMSO final concentration). The kinase reactions were stopped by the addition of 70 μl of Stop buffer (100 mM HEPES pH 7.5, 0.015% Brij 35, 35 mM EDTA and 0.2% of Coating Reagent 3 (Caliper Lifesciences)). The plates were read on a Caliper EZReader 2 as described above.

Chain of MAP4K1 (HPK1) (Q92918 whole entry): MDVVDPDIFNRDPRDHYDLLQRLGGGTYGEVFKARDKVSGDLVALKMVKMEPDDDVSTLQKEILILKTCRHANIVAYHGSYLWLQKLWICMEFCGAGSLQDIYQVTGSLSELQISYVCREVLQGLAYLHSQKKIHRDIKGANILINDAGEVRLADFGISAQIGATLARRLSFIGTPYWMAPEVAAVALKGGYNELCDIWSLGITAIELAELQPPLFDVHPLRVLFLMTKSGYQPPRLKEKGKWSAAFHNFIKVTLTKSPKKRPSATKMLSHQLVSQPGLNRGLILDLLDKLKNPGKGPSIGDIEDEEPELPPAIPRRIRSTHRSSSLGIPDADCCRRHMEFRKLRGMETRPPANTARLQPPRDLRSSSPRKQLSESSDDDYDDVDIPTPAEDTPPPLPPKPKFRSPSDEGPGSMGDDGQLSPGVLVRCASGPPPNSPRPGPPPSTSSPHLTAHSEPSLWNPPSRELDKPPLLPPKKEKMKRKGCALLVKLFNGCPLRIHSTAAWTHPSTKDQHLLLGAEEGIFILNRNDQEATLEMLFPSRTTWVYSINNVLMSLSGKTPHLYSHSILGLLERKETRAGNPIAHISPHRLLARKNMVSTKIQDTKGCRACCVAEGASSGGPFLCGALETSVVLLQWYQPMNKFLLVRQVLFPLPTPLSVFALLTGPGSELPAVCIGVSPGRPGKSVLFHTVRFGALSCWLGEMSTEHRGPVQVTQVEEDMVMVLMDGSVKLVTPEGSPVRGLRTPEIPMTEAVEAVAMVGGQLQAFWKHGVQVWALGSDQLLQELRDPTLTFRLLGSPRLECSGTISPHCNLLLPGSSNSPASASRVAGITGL

Row | SMILES | pIC50 (class designation) | pIC50 (numeric value)
1 | C[C@@H]1OC(=O)c2ccc(Nc3cc4c([C@@](C)(N)C5CC5)cnc(O[C@H]5C[C@H](O)C5)c4cn3)nc2[C@H]1C (relative stereo) [Compound 193, (7S,8R)-2-((5-((R)-1-Amino-1-cyclopropylethyl)-8-((trans)-3-hydroxycyclobutoxy)-2,7-naphthyridin-3-yl)amino)-7,8-dimethyl-7,8-dihydro-5H-pyrano[4,3-b]pyridin-5-one and (7S,8R)-2-((5-((S)-1-amino-1-cyclopropylethyl)-8-((trans)-3-hydroxycyclobutoxy)-2,7-naphthyridin-3-yl)amino)-7,8-dimethyl-7,8-dihydro-5H-pyrano[4,3-b]pyridin-5-one] | > 9.52 | 10.00
2 | CC[C@H](F)c1nc(Nc2cc3c(C(C)(C)N)cnc(OC)c3cn2)cnc1C#N (single isomer, unassigned) [Compound 30] | 8.00 to 8.96 | 8.45
3 | CC[C@@H](F)c1nc(Nc2cc3c(C(C)(C)N)cnc(OC)c3cn2)cnc1C#N (single isomer, unassigned) [Compound 31] | 8.00 to 8.96 | 8.23
4 | CC[C@](C)(N)c1cnc(OC)c2cnc(Nc3ccc4c(n3)CC(C)(C)OC4=O)cc12 (single isomer, unassigned) [Compound 62] | 9.00 to 9.51 | 9.26
5 | COc1ncc([C@H](C)N)c2cc(Nc3ccnc(C(C)(C)F)n3)ncc12 (stereo in doubt) [Compound 1, 5-(1-Aminoethyl)-N-(2-(2-fluoropropan-2-yl)pyrimidin-4-yl)-8-methoxy-2,7-naphthyridin-3-amine] | < 8.00 | 7.67
6 | COc1ncc(C(C)(C)N)c2cc(Nc3ccnc(OC(C)C)n3)ncc12 [Compound 4] | 9.00 to 9.51 | 9.38
7 | CNc1ncc(C(C)(C)N)c2cc(Nc3ccnc(C(C)(C)F)n3)ncc12 [Compound 6, 4-(2-Aminopropan-2-yl)-N6-(2-(2-fluoropropan-2-yl)pyrimidin-4-yl)-N1-methyl-2,7-naphthyridine-1,6-diamine] | 8.00 to 8.96 | 8.48
8 | CNc1ncc(C(C)(C)N)c2cc(Nc3cnc(C#N)c(C(C)C)n3)ncc12 [Compound 8, 5-((5-(2-Aminopropan-2-yl)-8-(methylamino)-2,7-naphthyridin-3-yl)amino)-3-isopropylpyrazine-2-carbonitrile] | < 8.00 | 7.95
9 | COc1ncc(C(C)(C)N)c2cc(Nc3cnc(C#N)c(C(C)C)n3)ncc12 [Compound 10] | 8.00 to 8.96 | 8.56
10 | CCOc1ncc(C(C)(C)N)c2cc(Nc3ccnc(C(C)(C)F)n3)ncc12 [Compound 16] | 8.00 to 8.96 | 8.60
11 | CNC(C)(C)c1cnc(OC)c2cnc(Nc3ccnc(C(C)(C)F)n3)cc12 [Compound 17, N-(2-(2-Fluoropropan-2-yl)pyrimidin-4-yl)-8-methoxy-5-(2-(methylamino)propan-2-yl)-2,7-naphthyridin-3-amine] | 8.00 to 8.96 | 8.40
12 | CC[C@@H](C)c1nc(Nc2cc3c(C(C)(C)N)cnc(OC)c3cn2)ccc1C#N [Compound 18] | 9.00 to 9.51 | 9.40
13 | COc1ncc(C(C)(C)N)c2cc(Nc3ccnc(N4CCC[C@@H]4C)n3)ncc12 [Compound 27] | > 9.52 | 9.52
14 | COc1ncc(C(C)(C)N)c2cc(Nc3cnc(C#N)c(C(C)(C)F)n3)ncc12 [Compound 29] | 8.00 to 8.96 | 8.40
15 | COc1ncc(C(C)(C)N)c2cc(Nc3cnc4c(n3)CC(C)(C)OC4=O)ncc12 [Compound 47] | < 8.00 | 7.87
16 | COc1ncc(C(C)(C)N)c2cc(Nc3cnc(C#N)c(N4CCC[C@@H]4C)n3)ncc12 [Compound 49] | 9.00 to 9.51 | 9.00
17 | COc1ncc(C2CCCN2)c2cc(Nc3ccc4c(n3)CC(C)(C)OC4=O)ncc12 (stereo not shown) [Compound 50, 2-((8-Methoxy-5-(pyrrolidin-2-yl)-2,7-naphthyridin-3-yl)amino)-7,7-dimethyl-7,8-dihydro-5H-pyrano[4,3-b]pyridin-5-one] | < 8.00 | 7.28
18 | COc1ncc(C(C)(C)N)c2cc(Nc3ccc4c(n3)[C@H]3CCC[C@H]3OC4=O)ncc12 [Compound 51] | > 9.52 | 9.59
19 | COc1ncc(C(C)(C)N)c2cc(Nc3cnc(C#N)c(C(C)C(F)(F)F)n3)ncc12 (stereo not shown) [Compound 63] | 8.00 to 8.96 | 8.19
20 | C[C@H]1OC(=O)c2ccc(Nc3cc4c(C(C)(C)N)cnc(OC5CC5)c4cn3)nc2[C@@H]1C [Compound 65] | 9.00 to 9.51 | 9.25
21 | CC[C@@](C)(N)c1cnc(OC2(C)CC2)c2cnc(Nc3ccc4c(n3)[C@@H](C)[C@H](C)OC4=O)cc12 [Compound 84] | 8.00 to 8.96 | 8.88
22 | CC[C@@](C)(N)c1cnc(OC2(C)CC2)c2cnc(Nc3ccc4c(n3)[C@@H](C)C(C)(C)OC4=O)cc12 [Compound 86] | 8.00 to 8.96 | 8.69

The remaining lines, values ahead:

Row | pIC50 (class designation) | pIC50 (numeric value) | SMILES
23 |  | 9.01 | C[C@](N)(c1cnc(OC2CC2)c2cnc(Nc3ccc4c(n3)CCOC4=O)cc12)C1CC1 (single isomer, unassigned) [Compound 108]
24 | 8.00 to 8.96 | 8.65 | C[C@@H]1OC(=O)c2ccc(Nc3cc4c(C(C)(N)CO)cnc(OC5CC5)c4cn3)nc2[C@H]1C (single isomer, unassigned) [Compound 139, (7S,8R)-2-((5-((R)-2-Amino-1-hydroxypropan-2-yl)-8-cyclopropoxy-2,7-naphthyridin-3-yl)amino)-7,8-dimethyl-7,8-dihydro-5H-pyrano[4,3-b]pyridin-5-one or (7S,8R)-2-((5-((S)-2-amino-1-hydroxypropan-2-yl)-8-cyclopropoxy-2,7-naphthyridin-3-yl)amino)-7,8-dimethyl-7,8-dihydro-5H-pyrano[4,3-b]pyridin-5-one]
25 | < 8.00 |  | C[C@@H]1OC(=O)c2ccc(Nc3cc4c([C@](C)(N)CO)cnc(OC5CC5)c4cn3)nc2[C@H]1C (single isomer, unassigned) [Compound 140, (7S,8R)-2-((5-((R)-2-Amino-1-hydroxypropan-2-yl)-8-cyclopropoxy-2,7-naphthyridin-3-yl)amino)-7,8-dimethyl-7,8-dihydro-5H-pyrano[4,3-b]pyridin-5-one or (7S,8R)-2-((5-((S)-2-amino-1-hydroxypropan-2-yl)-8-cyclopropoxy-2,7-naphthyridin-3-yl)amino)-7,8-dimethyl-7,8-dihydro-5H-pyrano[4,3-b]pyridin-5-one]
26 |  | 9.96 | CC1(C)Cc2nc(Nc3cc4c([C@](C)(N)C5CC5)cnc(OC5CC5)c4cn3)ccc2C(=O)N1 (single isomer, unassigned) [Compound 148]
27 |  | 8.58 | CC1(C)Cc2nc(Nc3cc4c([C@@](C)(N)C5CC5)cnc(OC5CC5)c4cn3)ccc2C(=O)O1 (single isomer, unassigned) [Compound 153]
28 | 8.00 to 8.96 | 8.13 | C[C@H](Oc1ncc(C(C)(C)N)c2cc(Nc3ccc4c(n3)CC(C)(C)OC4=O)ncc12)C(F)F (single isomer, unassigned) [Compound 164]
29 | 8.00 to 8.96 | 8.90 | C[C@@H](Oc1ncc(C(C)(C)N)c2cc(Nc3ccc4c(n3)CC(C)(C)OC4=O)ncc12)C(F)F (single isomer, unassigned) [Compound 165]
30 | 8.00 to 8.96 | 8.76 | CC[C@](C)(N)c1cnc(OCC(F)(F)F)c2cnc(Nc3ccc4c(n3)C(C)(C)OC4=O)cc12 (single isomer, unassigned) [Compound 173]
31 | < 8.00 | 7.45 | CC[C@@](C)(N)c1cnc(OCC(F)(F)F)c2cnc(Nc3ccc4c(n3)C(C)(C)OC4=O)cc12 (single isomer, unassigned) [Compound 175]
32 | 8.00 to 8.96 | 8.67 | C[C@@H](Oc1ncc(C(C)(C)N)c2cc(Nc3ccc4c(n3)CC(C)(C)OC4=O)ncc12)C(F)(F)F (single isomer, unassigned) [Compound 179]
33 | < 8.00 | 7.81 | C[C@H](Oc1ncc(C(C)(C)N)c2cc(Nc3ccc4c(n3)CC(C)(C)OC4=O)ncc12)C(F)(F)F (single isomer, unassigned) [Compound 180]
34 | > 9.52 | 9.66 | CC[C@@H](N)c1ccc(OC)c2cnc(Nc3ccc4c(n3)C3(CC3)C(C)(C)OC4=O)cc12 (single isomer, unassigned) [Compound 207, (S)-2′-((5-(1-Aminopropyl)-8-methoxyisoquinolin-3-yl)amino)-7′,7′-dimethyl-5′H,7′H-spiro[cyclopropane-1,8′-pyrano[4,3-b]pyridin]-5′-one or (R)-2′-((5-(1-aminopropyl)-8-methoxyisoquinolin-3-yl)amino)-7′,7′-dimethyl-5′H,7′H-spiro[cyclopropane-1,8′-pyrano[4,3-b]pyridin]-5′-one]

Reference: patent US11534441B2, “MAP4K1 inhibitors” (Blueprint Medicines Corporation, priority 2020, dated 2022)
